Laboratory results taken from patent US20080207708A1, “Oxazole and Thiazole Compounds and Their Use in the Treatment of Pge2 Mediated Disorders” (GLAXO GROUP LIMITED, priority 2005, published 2008).
Where a name gives a salt, the structure may show the parent alone.

Assays:
[1] = test system: rat model of chronic constriction injury; settings: Anesthesia and Analgesia 2001, 93, 1012-7; cited from earlier work
[2] = test system: rodent model of post-operative pain; settings: Anesthesia and Analgesia 2001, 92, 233-238; cited from earlier work
[3] = test system: gastric lesions in rats; settings: lesions induced by taurocholate acid, aspirin or indomethacin, J. Pharmacol. Exp. Ther. 1992, 263(1), 374-380; cited from earlier work
[4] = target: T1, EP1 receptors (Homo sapiens, UniProt P34995); assay: human EP1 calcium mobilisation assay (CHO-K1 cells, FLIPR, PGE2); format: cell-based; set-up: expressed in transfected cells; host or cells: CHO-K1 cells, pCIN vector; settings: free bases or sodium salts; averages of a number of experiments; read-out: functional pKi value, human EP1 calcium mobilisation assay (converted)
T1 sequence (P34995 1-402): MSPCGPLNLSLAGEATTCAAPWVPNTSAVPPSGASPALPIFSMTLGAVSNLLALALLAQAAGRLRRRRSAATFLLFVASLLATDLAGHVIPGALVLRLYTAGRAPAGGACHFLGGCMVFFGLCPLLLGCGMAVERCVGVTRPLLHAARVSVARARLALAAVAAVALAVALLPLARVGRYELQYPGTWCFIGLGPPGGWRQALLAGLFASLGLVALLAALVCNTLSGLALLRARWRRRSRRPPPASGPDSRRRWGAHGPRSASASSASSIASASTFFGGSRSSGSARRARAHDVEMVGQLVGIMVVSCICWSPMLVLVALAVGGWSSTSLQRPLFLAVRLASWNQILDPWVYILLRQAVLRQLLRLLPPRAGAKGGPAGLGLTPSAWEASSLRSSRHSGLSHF
Procedure, shortened: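 CHO-K1 cells stably transfected with human EP1 cDNA, loaded with Fluo-4 AM after 24 h culture at 37° C. Compounds added first, then PGE2; antagonism read as inhibition of PGE2-induced intracellular calcium rise on FLIPR. pIC50 taken as concentration giving half-maximal inhibition, from curve fitting.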

[5] = target: T1, EP1 receptors; assay: Binding assay for the human prostanoid EP1 receptor (competition with [3H]-PGE2); set-up: expressed in transfected cells; host or cells: CHO-K1 cells, membrane fraction; settings: [3H]-PGE2 competition; averages of a number of experiments; read-out: pIC50 value, binding assay for the human prostanoid EP1 receptor (converted)
Procedure, shortened: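 Membranes from CHO-K1 cells stably expressing human EP1 incubated with compounds and [3H]-PGE2 (3 nM final) for 30 min at 30° C in MES buffer with EDTA and MgCl2, pH 6. Bound radioactivity measured after filtration; IC50 from nonlinear fit of specific binding inhibition.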

Compound: Cc1cc(Cl)ccc1S(=O)(=O)NC[C@H]1C2CCC(CC2)[C@@H]1/C=C\CCCC(=O)O [ONO-8711]
- hyperalgesia and allodynia [1]: reduces hyperalgesia and allodynia
- mechanical hyperalgesia [2]: inhibits mechanical hyperalgesia

Compound: O=C(O)Cc1ccc(CCNS(=O)(=O)c2ccc(Cl)cc2)cc1 [BM 13505]
- gastric lesions [3]: inhibit gastric lesions

Compound: O=C(O)CCc1ccccc1CC1C2CCC(O2)C1c1nc(C(=O)NCCCCC2CCCCC2)co1 (centres unmarked) [SQ 33961]
- gastric lesions [3]: inhibit gastric lesions

Compound: Clc1ccc(OCc2ccccc2)c(Cc2nc(-c3nc4ccc(N5CCCC5)nc4[nH]3)cs2)c1 [Example 137, 2-[2-({5-Chloro-2-[(phenylmethyl)oxy]phenyl}methyl)-1,3-thiazol-4-yl]-5-(1-pyrrolidinyl)-1H-imidazo[4,5-b]pyridinehydrochloride]
- Ki [4]: < 1000 nM
- IC50 [5]: ≤ 1000 nM

Compound: Clc1ccc(OCc2ccccc2)c(Cc2nc(-c3nc4ccccc4[nH]3)cs2)c1 [Example 131, 2-[2-({5-Chloro-2-[(phenylmethyl)oxy]phenyl}methyl)-1,3-thiazol-4-yl]-1H-benzimidazole]
- Ki [4]: < 1000 nM
- IC50 [5]: ≤ 1000 nM

Compound: O=C(Nc1ccccn1)c1csc(Cc2cc(Cl)ccc2OCc2ccccc2)n1 [Example 99, 2-({5-Chloro-2-[(phenylmethyl)oxy]phenyl}methyl)-N-2-pyridinyl-1,3-thiazole-4-carboxamide]
- Ki [4]: > 1000 nM
- IC50 [5]: ≤ 1000 nM

Compound: CC(C)(C(=O)O)c1csc(-c2cc(Cl)ccc2OCc2ccccc2)n1 [Example 48, Sodium 2-(2-{5-chloro-2-[(phenylmethyl)oxy]phenyl}-1,3-thiazol-4-yl)-2-methylpropanoate]
- Ki [4]: < 1000 nM
- IC50 [5]: ≤ 1000 nM

Compound: Cc1noc(C)c1S(=O)(=O)NC(=O)c1csc(Cc2cc(Cl)ccc2OCc2ccccc2)n1 [Example 108, 2-({5-Chloro-2-[(phenylmethyl)oxy]-phenyl}methyl)-N-[(3,5-dimethyl-4-isoxazolyl)sulfonyl]-1,3-thiazole-4-carboxamide]
- Ki [4]: ≤ 31.6 nM
- IC50 [5]: ≤ 31.6 nM

Compound: O=C(NS(=O)(=O)c1ccccc1)c1csc(Cc2cc(Cl)ccc2OCc2ccc(F)cc2)n1 [Example 101, 2-[(5-Chloro-2-{[(4-fluorophenyl)methyl]-oxy}phenyl)methyl]-N-(phenylsulfonyl)-1,3-thiazole-4-carboxamide]
- Ki [4]: < 1000 nM
- IC50 [5]: ≤ 31.6 nM

Compound: OCc1cccc2nc(-c3csc(Cc4cc(Cl)ccc4OCc4ccccc4)n3)[nH]c12 [Example 143, {2-[2-({5-Chloro-2-[(phenylmethyl)oxy]phenyl}methyl)-1,3-thiazol-4-yl]-1H-benzimidazol-4-yl}methanol hydrochloride]
- Ki [4]: > 1000 nM
- IC50 [5]: ≤ 1000 nM

Compound: OCCc1ccc2nc(-c3csc(Cc4cc(Cl)ccc4OCc4ccccc4)n3)[nH]c2c1 [Example 153, 2-{2-[2-({5-Chloro-2-[(phenylmethyl)oxy]phenyl}methyl)-1,3-thiazol-4-yl]-1H-benzimidazol-5-yl}ethanol]
- Ki [4]: < 1000 nM
- IC50 [5]: ≤ 31.6 nM

Compound: CC(C)COc1ccc(Cl)cc1Cc1nc(-c2nc3ccc(CCN4CCN(C)CC4)cc3[nH]2)co1 [Example 167, 2-[2-({5-chloro-2-[(2-methylpropyl)oxy]phenyl}methyl)-1,3-oxazol-4-yl]-5-[2-(4-methyl-1-piperazinyl)ethyl]-1H-benzimidazolehydrochloride]
- Ki [4]: < 1000 nM
- IC50 [5]: ≤ 31.6 nM

Compound: CC(C)COc1ccc(Cl)cc1Cc1nc(-c2nc3ccc(CN(C)C)cc3[nH]2)cs1 [Example 124, ({2-[2-({5-Chloro-2-[(2-methylpropyl)oxy]phenyl}-methyl)-1,3-thiazol-4-yl]-1H-benzimidazol-5-yl}methyl)dimethylaminehydrochloride]
- Ki [4]: < 1000 nM
- IC50 [5]: ≤ 31.6 nM

Compound: CNCc1ccc2nc(-c3csc(Cc4cc(Cl)ccc4OCC(C)C)n3)[nH]c2c1 [Example 126, ({2-[2-({5-Chloro-2-[(2-methylpropyl)oxy]phenyl}-methyl)-1,3-thiazol-4-yl]-1H-benzimidazol-5-yl}methyl)methylaminehydrochloride]
- Ki [4]: < 1000 nM
- IC50 [5]: ≤ 31.6 nM

Compound: CC(C)C(=O)Nc1csc(Cc2cc(Cl)ccc2OCc2ccccc2)n1 [Example 129, N-[2-({5-Chloro-2-[(phenylmethyl)oxy]phenyl}methyl)-1,3-thiazol-4-yl]-2-methylpropanamide]
- Ki [4]: < 1000 nM
- IC50 [5]: ≤ 1000 nM

Compound: Clc1ccc(OCc2ccccc2)c(Cc2nc(-c3nc4ccc(CN5CCCCC5)cc4[nH]3)co2)c1 [Example 172, 2-[2-({5-chloro-2-[(phenylmethyl)oxy]phenyl}-methyl)-1,3-oxazol-4-yl]-5-(1-piperidinylmethyl)-1H-benzimidazolehydrochloride]
- Ki [4]: < 1000 nM
- IC50 [5]: ≤ 1000 nM

Compound: CC(C)COc1ccc(Cl)cc1Cc1nc(-c2nc3ccc(CN4CCOCC4)cc3[nH]2)cs1 [Example 125, 2-[2-({5-Chloro-2-[(2-methylpropyl)oxy]phenyl}-methyl)-1,3-thiazol-4-yl]-5-(4-morpholinylmethyl)-1H-benzimidazolehydrochloride]
- Ki [4]: < 1000 nM
- IC50 [5]: ≤ 31.6 nM

Compound: CC(C)COc1ccc(Cl)cc1Cc1nc(-c2nc3ccc(CCN4CCCCC4)cc3[nH]2)co1 [Example 168, 2-[2-({5-chloro-2-[(2-methylpropyl)oxy]phenyl}methyl)-1,3-oxazol-4-yl]-5-[2-(1-piperidinyl)ethyl]-1H-benzimidazolehydrochloride]
- Ki [4]: < 1000 nM
- IC50 [5]: ≤ 31.6 nM

Compound: CC(C)COc1ccc(Cl)cc1Cc1nc(-c2nc3ccc(N4CCCCC4)nc3[nH]2)cs1 [Example 147]
- Ki [4]: < 1000 nM
- IC50 [5]: ≤ 1000 nM

Compound: CNCc1ccc2nc(-c3coc(Cc4cc(Cl)ccc4OCC(C)C)n3)[nH]c2c1 [Example 174, ({2-[2-({5-Chloro-2-[(2-methylpropyl)oxy]phenyl}methyl)-1,3-oxazol-4-yl]-1H-benzimidazol-5-yl}methyl)methylaminedihydrochloride]
- Ki [4]: < 1000 nM
- IC50 [5]: ≤ 31.6 nM

Compound: CC(C)COc1ccc(Cl)cc1Cc1nc(-c2nc3ccc(N4CCOCC4)nc3[nH]2)cs1 [Example 144, 2-[2-({5-Chloro-2-[(2-methylpropyl)oxy]phenyl}methyl)-1,3-thiazol-4-yl]-5-(4-morpholinyl)-1H-imidazo[4,5-b]pyridine]
- Ki [4]: ≤ 31.6 nM
- IC50 [5]: ≤ 1000 nM

Compound: CC(C)(C(=O)O)c1csc(-c2cc(Br)ccc2OCc2ccccc2)n1 [Example 49, Sodium 2-(2-{5-bromo-2-[(phenylmethyl)oxy]phenyl}-1,3-thiazol-4-yl)-2-methylpropanoate]
- Ki [4]: < 1000 nM
- IC50 [5]: ≤ 1000 nM

Compound: CC(c1nc(C(=O)O)cs1)c1cc(Cl)ccc1OCc1ccccc1 (centres unmarked) [Example 50]
- Ki [4]: < 1000 nM
- IC50 [5]: ≤ 1000 nM
